# Test results from US9677094B2, “Process of producing a fermentation product” (NOVOZYMES A/S, priority 2011, dated 2017).
# Tests used:
# [1] = tested on: streptozotocin-induced diabetic and Zucker obese rats; conditions: cited from earlier work
# Fermentis Red Star yeast = assay: Ethanol yield in fermentation (SSF) of liquefied corn mash, HPLC; type: cell-based; conditions: for EtOH: corn mash 32% DS
# Method: Pyridoxamine (Sigma #P9380) was evaluated for its ability to increase ethanol yields from laboratory-made corn mash when added at the time of liquefaction or at the beginning of fermentation.
# Liquefied mashes were made using corn and backset obtained from a commercial ethanol plant in the Midwestern United States (Corn LP, Goldfield, Iowa). All mashes contained 32% Dry Solids (DS) and were liquefied at a pH of 5.8 for 120 minutes in a water bath at 85° C., using the alpha-amylase product Liquozyme SC DS (Novozymes) at a dose of 0.02% w/w of corn. Experimental mashes were treated with pyridoxamine at doses of 10 micrograms/g DS and 50 micrograms/g DS of pyridoxamine in 110 g mash. During liquefaction, the mashes were shaken vigorously every 2 minutes for the first 20 minutes and again at 30 minute intervals until the total liquefaction time equaled 2 hours. All mashes were then frozen overnight.
# To each thawed mash, urea was added to a final concentration of 1000 ppm, and penicillin was added to a final concentration of 3 ppm. To test the effects of pyridoxamine in simultaneous saccharification and fermentation (SSF), separate aliquots of liquefied mash were dosed with 10 micrograms/g DS and 50 micrograms/g DS of pyridoxamine, respectively. The mashes were fermented as follows:
# For fermentation, between 4 and 5 grams of each mash was added to 6 pre-weighed tubes per treatment. […] One hundred microliters of Fermentis Red Star yeast (5.5 g yeast in 100 mL tap water incubated at 32° C. for 30 minutes) was added to each tube, and the gluocoamylase product Spirizyme Ultra™ (Novozymes) was added to each tube to achieve a dose of 0.5 AGU/g DS.
# After 24 hours, one replicate from each mash was sacrificed for HPLC analysis using 50 microliters of 40% v/v H2SO4. The tubes were centrifuged at 1500×g for 10 minutes, and the supernatants were filtered using Whatman syringe filters with 0.45 micron membranes, then diluted 1:5 for HPLC analysis. The remaining samples were sacrificed after 54 hours in the same manner but were subjected to HPLC analysis without dilution. Ethanol and oligosaccharide concentrations were measured by HPLC using an HPX-87H column (Bio-Rad) heated to 65° C. with a mobile phase of 5 mM sulfuric acid at a flow rate of 0.6 ml/min, with refractive index detection at 50° C.
# [2] = tested on: advanced lipoxidation end-products on protein; conditions: during lipid peroxidation reactions; cited from earlier work
# [3] = tested on: initial stages of the Maillard reaction; conditions: conjugates of beta-lactoglobulin with galactose and tagatose; cited from earlier work
# [4] = tested on: glycation reactions and the formation of advanced glycation end products (AGEs); conditions: cited from earlier work
smiles,measurement,setting,value
Cc1ncc(CO)c(CN)c1O [Pyridoxamine],development of nephropathy,[1]; both animal models,protects against the development of nephropathy
same,lipid-lowering effect,[1]; streptozotocin-induced diabetic and Zucker obese rats,strong lipid-lowering effect
same,ethanol yield versus control,Fermentis Red Star yeast; addition at the beginning of SSF (after liquefaction),did not result in an increase in ethanol yield
same,ethanol yield versus control,"Fermentis Red Star yeast; addition at the start of corn mash liquefaction, three of the four results (both doses of 10 and one dose of 50 micrograms/g DS)",statistically significant increase in ethanol yield
same,EtOH,"Fermentis Red Star yeast; experiment 1, dose 10 micrograms/g DS, addition point Liq (liquefaction)",12.19 w/v %
same,EtOH,"Fermentis Red Star yeast; experiment 1, dose 10 micrograms/g DS, addition point SSF",11.89 w/v %
same,EtOH,"Fermentis Red Star yeast; experiment 1, dose 50 micrograms/g DS, addition point Liq (liquefaction)",12.23 w/v %
same,EtOH,"Fermentis Red Star yeast; experiment 1, dose 50 micrograms/g DS, addition point SSF",11.79 w/v %
same,EtOH,"Fermentis Red Star yeast; experiment 2, dose 10 micrograms/g DS, addition point Liq (liquefaction)",12.01 w/v %
same,EtOH,"Fermentis Red Star yeast; experiment 2, dose 10 micrograms/g DS, addition point SSF",11.75 w/v %
same,EtOH,"Fermentis Red Star yeast; experiment 2, dose 50 micrograms/g DS, addition point Liq (liquefaction)",11.86 w/v %
same,EtOH,"Fermentis Red Star yeast; experiment 2, dose 50 micrograms/g DS, addition point SSF",11.75 w/v %
same,formation of advanced lipoxidation end-products on protein,[2],inhibits
same,effect on the initial stages of the Maillard reaction,[3],inhibitory effect
same,inhibition of glycation reactions and AGE formation,[4],can inhibit
